Experiments:
RIPK1 kinase [1] = molecular target: T1, RIPK1 kinase (Homo sapiens, UniProt Q13546); experiment: In vitro RIPK1 kinase activity assay (ADP-Glo), inhibition by compounds at 1 μM; assay type: biochemical; conditions: compound 1 μM; ATP 10 μM; MBP substrate 100 μg/mL; read-out: RIPK1 kinase activity inhibition rate range
T1 construct: purchased Promega VA7593
T1 sequence (Q13546 1-671): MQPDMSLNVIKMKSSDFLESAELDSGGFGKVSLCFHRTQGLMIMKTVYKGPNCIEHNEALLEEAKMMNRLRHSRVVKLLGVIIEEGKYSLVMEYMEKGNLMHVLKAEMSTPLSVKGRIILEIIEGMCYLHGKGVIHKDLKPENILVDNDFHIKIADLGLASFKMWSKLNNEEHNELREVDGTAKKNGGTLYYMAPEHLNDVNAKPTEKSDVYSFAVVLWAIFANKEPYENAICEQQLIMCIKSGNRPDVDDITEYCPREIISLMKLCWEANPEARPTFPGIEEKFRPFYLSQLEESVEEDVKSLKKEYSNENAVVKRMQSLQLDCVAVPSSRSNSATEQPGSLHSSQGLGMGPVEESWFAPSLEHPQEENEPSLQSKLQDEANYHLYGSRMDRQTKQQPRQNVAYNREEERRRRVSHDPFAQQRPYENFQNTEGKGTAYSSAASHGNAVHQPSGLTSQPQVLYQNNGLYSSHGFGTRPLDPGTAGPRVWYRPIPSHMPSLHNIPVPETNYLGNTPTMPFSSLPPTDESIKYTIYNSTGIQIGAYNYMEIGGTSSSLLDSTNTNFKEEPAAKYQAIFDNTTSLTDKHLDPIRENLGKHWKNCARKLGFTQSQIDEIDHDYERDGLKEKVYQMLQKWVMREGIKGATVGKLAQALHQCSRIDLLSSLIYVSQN
Outline: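 Compound and RIPK1 were preincubated 15 min at room temperature, then reacted 1 h with 10 μM ATP and 100 μg/mL MBP substrate in kinase buffer D. ADP formed was measured by ADP-Glo luminescence and converted to percent inhibition of kinase activity.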

RIPK1 kinase [2] = molecular target: T1, RIPK1 kinase; experiment: In vitro RIPK1 kinase activity IC50 assay (ADP-Glo); assay type: biochemical; conditions: ATP 10 μM; MBP substrate 100 μg/mL; 8 concentration points; read-out: IC50 range of compounds for RIPK1 kinase activity
Outline: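 Human RIPK1 preincubated 15 min at room temperature with compound (8-point 1:5 dilution series, 1% DMSO in kinase buffer D). Reaction then ran 1 h with 10 μM ATP and 100 μg/mL MBP substrate; ADP measured by ADP-Glo luminescence, IC50 from four-parameter nonlinear fit.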

U937 cells = experiment: Inhibition rate of compound (1 μM) on necroptosis of U937 cells (TSZ-induced, CellTiter-Glo); assay type: cell-based; conditions: TSZ (hTNF-α, SM-164, Z-VAD-FMK) 20 hours
Outline: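 U937 cells were pretreated 15 min with compound, then necroptosis was triggered with TSZ (Z-VAD-FMK, hTNF-α, SM-164) for 20 h at 37° C. Viability was read as ATP by CellTiter-Glo luminescence, and inhibition (%) was taken relative to no-TSZ and TSZ-only wells.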

Row | SMILES | inhibition at 1 µM (RIPK1 kinase [1]) | IC50 (RIPK1 kinase [2]) | Inhibition rate range of compounds (1 μM) on U937 cell necroptosis (U937 cells)
1 | C[C@@H](NC(=O)C(=O)N[C@H]1COc2ccc(C#CCN3CCC(=O)CC3)cc2N(C)C1=O)c1ccccc1 [Example 139, N^1-((S)-5-methyl-4-oxo-7-(3-(4-oxopiperidin-1-yl)prop-1-yn-1-yl)-2,3,4,5-tetrahydrobenzo[b][1, 4]oxazepin-3-yl)-N^2-((R)-1-phenylethyl)oxalamide] | ≥ 75% | < 100 nM | B (B: 50-89%)
2 | C[C@@H](NC(=O)C(=O)N[C@H]1COc2ccc(C#CCN3CCOCC3)cc2N(C)C1=O)c1ccccc1 [Example 140, N^1-((S)-5-methyl-7-(3-morpholinoprop-1-yn-1-yl)-4-oxo-2,3,4,5-tetrahydrobenzo[b][1,4]oxazepin-3-yl)-N^2-((R)-1-phenylethyl)oxalamide] | ≥ 75% | < 100 nM | A (A: ≥90%)
3 | C[C@@H](NC(=O)C(=O)N[C@H]1COc2ccc(C#CCN3C(=O)CCC3=O)cc2N(C)C1=O)c1ccccc1 [Example 144, N^1-((S)-7-(3-(2,5-dioxopyrrolidin-1-yl)prop-1-yn-1-yl)-5-methyl-4-oxo-2,3,4,5-tetrahydrobenzo[b][1,4]oxazepin-3-yl)-N^2-((R)-1-phenylethyl)oxalamide] | ≥ 75% | < 100 nM | A (A: ≥90%)
4 | C[C@@H](NC(=O)C(=O)N[C@H]1COc2ccc(C#CCN3CCNC(=O)C3)cc2N(C)C1=O)c1ccccc1 [Example 145, N^1-((S)-5-methyl-4-oxo-7-(3-(3-oxopiperazin-1-yl)prop-1-yn-1-yl)-2,3,4,5-tetrahydrobenzo[b][1, 4]oxazepin-3-yl)-N^2-((R)-1-phenylethyl)oxalamide] | ≥ 75% | < 100 nM | A (A: ≥90%)
5 | C[C@@H](NC(=O)C(=O)N[C@H]1COc2ccc(C#CCN(C)C)cc2N(C)C1=O)c1ccccc1 [Example 146, N^1-((S)-7-(3-(dimethylamino)prop-1-yn-1-yl)-5-methyl-4-oxo-2,3,4,5-tetrahydrobenzo[b][1,4]oxazepin-3-yl)-N^2-((R)-1-phenylethyl)oxalamide] | 50 to 74% | < 100 nM | A (A: ≥90%)
6 | C[C@@H](NC(=O)C(=O)N[C@H]1COc2ccc(C#CC3CN(CC#N)C3)cc2N(C)C1=O)c1ccccc1 [Example 148, N^1-((S)-7-((1-(cyanomethyl)azetidin-3-yl)ethynyl)-5-methyl-4-oxo-2,3,4,5-tetrahydrobenzo[b][1, 4]oxazepin-3-yl)-N^2-((R)-1-phenylethyl)oxalamide] | ≥ 75% | < 100 nM | A (A: ≥90%)
7 | C[C@@H](CNC(=O)C(=O)N[C@H]1COc2ccc(C#CCCO)cc2N(C)C1=O)c1ccccc1 [Example 155, N^1-((S)-7-(4-hydroxybut-1-yn-1-yl)-5-methyl-4-oxo-2,3,4,5-tetrahydrobenzo[b][1,4]oxazepin-3-yl)-N^2-((R)-2-phenylpropyl)oxalamide] | ≥ 75% | < 100 nM | A (A: ≥90%)
8 | C[C@H](CNC(=O)C(=O)N[C@H]1COc2ccc(C#CCCO)cc2N(C)C1=O)c1ccccc1 [Example 156, N^1-((S)-7-(4-hydroxybut-1-yn-1-yl)-5-methyl-4-oxo-2,3,4,5-tetrahydrobenzo[b][1,4]oxazepin-3-yl)-N^2-((S)-2-phenylpropyl)oxalamide] | 50 to 74% | < 100 nM | A (A: ≥90%)
9 | C[C@@H](CNC(=O)C(=O)N[C@H]1COc2ccc(C#CC3(O)COC3)cc2N(C)C1=O)c1ccccc1 [Example 158, N^1-((S)-7-((3-hydroxyoxetan-3-yl)ethynyl)-5-methyl-4-oxo-2,3,4,5-tetrahydrobenzo[b][1,4]oxazepin-3-yl)-N^2-((R)-2-phenylpropyl)oxalamide] | ≥ 75% | < 100 nM | A (A: ≥90%)
10 | C[C@@H](CNC(=O)C(=O)N[C@H]1COc2ccc(C#CCN3CCOCC3)cc2N(C)C1=O)c1ccccc1 [Example 159, N^1-((S)-5-methyl-7-(3-morpholinoprop-1-yn-1-yl)-4-oxo-2,3,4,5-tetrahydrobenzo[b][1,4]oxazepin-3-yl)-N^2-((R)-2-phenylpropyl)oxalamide] | ≥ 75% | < 100 nM | A (A: ≥90%)
11 | CN1C(=O)C(NC(=O)C(=O)NCCc2cccc(F)c2)CCc2ccc(C#CCCO)cc21 (stereo not drawn) [Example 167, N^1-(3-fluorophenethyl)-N^2-(8-(4-hydroxybut-1-yn-1-yl)-1-methyl-2-oxo-2,3,4,5-tetrahydro-1H-benzo[b]azepin-3-yl)oxalamide] | ≥ 75% | < 100 nM | A (A: ≥90%)
